# Data from patent publication US20250177476A1, “ANG-(1-7) OLIGOPEPTIDE DERIVATIVES FOR USE IN MITIGATING AMYLOID-RELATED IMAGING ABNORMALITIES” (ProNeurogen, Inc., priority 2023, published 2025).
# No end group written: not given here.
# Columns and labels:
# [1] = tested on: Tg-SwDI mouse model of AD and cerebral amyloid angiopathy (CAA); assay: Cerebral microbleeds (ARIA-H) in Tg-SwDI mice given PNA5 with or without anti-Aβ antibody; format: in vivo; conditions: Tg-SwDI mice aged 12-13 months; PNA5 30 μL, with PBS or anti-Aβ antibody 3 mg/kg; 2 months; tissue analysis (FIGS. 1A and 1B)
# Description: The effect the Ang-(1-7) oligopeptide PNA5 had on cerebral microbleeds (ARIA-H) in a mouse model of AD and cerebral amyloid angiopathy (CAA) was studied.
# Tg-SwDI mice aged 12-13 months were administered: (1) the PNA5 vehicle, without PNA5, and PBS, (2) vehicle and an anti-Aβ antibody, (3) PNA5 and PBS, or (4) PNA5 and an anti-Aβ antibody. The anti-AB antibody therapy (IgG) was administered in an amount of 3 mg/kg. The PNA5 was administered in an amount of 30 μL. For groups receiving the PNA5 alone (Group 3), the compounds were administered for […] which point they were administered a […] (NOR) test and Nest building test (FIG. 2) prior to euthanasia and collection of the tissue for analysis of the microbleeds (FIGS. 1A and 1B). For groups receiving the anti-AB antibody and PNA5 (Group 4), the compounds were administered for 2 months at which point they were administered a […] (NOR) test and Nest building test prior (FIG. 2) to euthanasia and collection of the tissue for analysis of the microbleeds (FIGS. 1A and 1B).
# [2] = FDA-approved food additive; cited from earlier work
Compound,cerebral microbleeds (ARIA-H) [1],safe human daily intake [2]
"PNA5: Ang-(1-7) derivative Asp Arg Val Tyr Ile His Ser* (glycosylated serine), carboxyl terminal end NH2 (DRVYIHS-NH2; not fully specified (residue 7); also: glycan on Ser7 not given here)",decreased,–
"CC(=O)OC[C@H]1O[C@H](O[C@]2(COC(C)=O)O[C@H](COC(=O)C(C)C)[C@@H](OC(=O)C(C)C)[C@@H]2OC(=O)C(C)C)[C@H](OC(=O)C(C)C)[C@@H](OC(=O)C(C)C)[C@@H]1OC(=O)C(C)C [SAIB, sucrose acetoisobutyrate]",–,up to 20 mg/kg
